Measurements from patent US20260070917A1, “CYCLIN DEPENDENT KINASE DEGRADERS AND METHODS OF USE THEREOF” (Differentiated Therapeutics Inc, priority 2023, published 2026).
Where two headings read alike, the source gives them in different places.

Key:
Type in all cases: cell-based
CCNE1 = target: T1, CCNE1 (Homo sapiens, UniProt P24864); assay: HiBit Assay Protocol for CCNE1 (HIBIT protein quantification, degradation); details: HEK293-CCNE1-Hibit cells, compound treatment for 6 hours
T1 construct: host or cells: HEK293-CCNE1-Hibit
Summary of the method: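 Degradation readout: lytic Nano-Glo HiBiT luminescence after 6 h exposure of HEK293-CCNE1-HiBiT cells to 10-point, 3-fold serial dilutions. Signal was scaled between medium-only and DMSO-treated wells, and DC50 came from curve fits.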

CDK2 = target: T2, CDK2 (Homo sapiens, UniProt P24941); assay: HiBit Assay Protocol for CDK2 (HIBIT protein quantification, degradation); details: HEK293-CDK2-Hibit cells, compound treatment for 6 hours; for DC50: ABS DC50
T2 construct: host or cells: HEK293-CDK2-Hibit
Summary of the method: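 DC50 comes from a fitted curve of remaining CDK2-HiBiT luminescence, referenced to DMSO-treated cells and medium-only wells. HEK293-CDK2-HiBiT cells, plated the previous night, received compounds in a 10-point, 3-fold series for 6 h before lysis with LgBiT-containing Nano-Glo HiBiT reagent.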

CDK9 = target: T3, CDK9 (Homo sapiens, UniProt P50750); assay: HiBit Assay Protocol for CDK9 (HIBIT protein quantification, degradation); details: HEK293-CDK9-Hibit cells, compound treatment for 6 hours; for Dmax: read-out: CDK9 HIBIT Protein Quantification Maximum
T3 construct: host or cells: HEK293-CDK9-Hibit
Summary of the method: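 Degradation read-out: luminescence after lytic HiBiT/LgBiT detection in HEK293-CDK9-HiBiT cells exposed 6 h to 10-point, 3-fold compound dilutions. Signal scaled between 0.1% DMSO-treated cells and medium alone; DC50 fitted from the curve.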

T3 sequence (P50750 whole entry): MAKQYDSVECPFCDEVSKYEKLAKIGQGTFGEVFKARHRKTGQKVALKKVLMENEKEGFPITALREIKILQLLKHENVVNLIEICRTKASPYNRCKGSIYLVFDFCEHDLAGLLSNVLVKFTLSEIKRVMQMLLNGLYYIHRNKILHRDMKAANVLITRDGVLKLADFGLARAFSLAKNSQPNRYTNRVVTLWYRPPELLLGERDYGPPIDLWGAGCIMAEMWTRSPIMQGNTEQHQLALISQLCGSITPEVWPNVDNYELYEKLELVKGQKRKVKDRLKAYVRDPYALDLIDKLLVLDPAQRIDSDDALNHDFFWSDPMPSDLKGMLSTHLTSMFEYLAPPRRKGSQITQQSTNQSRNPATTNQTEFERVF
T1 sequence (P24864 whole entry): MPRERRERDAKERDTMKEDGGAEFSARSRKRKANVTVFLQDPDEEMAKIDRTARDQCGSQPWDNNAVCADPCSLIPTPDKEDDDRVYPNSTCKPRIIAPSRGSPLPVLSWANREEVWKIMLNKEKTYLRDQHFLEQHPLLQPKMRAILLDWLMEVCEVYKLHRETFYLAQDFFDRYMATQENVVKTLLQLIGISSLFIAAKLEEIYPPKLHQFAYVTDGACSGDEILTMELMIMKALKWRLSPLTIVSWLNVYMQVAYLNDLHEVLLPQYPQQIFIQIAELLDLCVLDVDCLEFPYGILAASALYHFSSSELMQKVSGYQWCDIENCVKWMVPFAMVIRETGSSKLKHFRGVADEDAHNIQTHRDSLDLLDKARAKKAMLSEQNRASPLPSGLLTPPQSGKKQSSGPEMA

| Compound | CCNE1 HIBIT Protein Quantification Maximum (CCNE1) [%] | CDK2 HIBIT Protein Quantification Maximum (CDK2) [%] | Dmax (CDK9; 6 h) [%] | DC50 (CDK2) [nM] | DC50 (CDK9; ABS DC50) [nM] | Dmax (CDK9) [%] |
| --- | --- | --- | --- | --- | --- | --- |
| CC1CCCC1N1C(=O)C2(CC2)c2cnc(NC3CCN(S(=O)(=O)N4CCC5(CCN(C(=O)CCCCCCCCCc6ccc7c(c6)n(C)c(=O)n7C6CCC(=O)NC6=O)C5)C4)CC3)nc21 (stereo not shown) [Compound 89] | 25 | 50 | 35 | – | – | – |
| CC1CCCC1N1C(=O)C2(CC2)c2cnc(NC3CCN(S(=O)(=O)C4CCN(C(=O)CCCCCCCCCc5ccc6c(c5)n(C)c(=O)n6C5CCC(=O)NC5=O)C4)CC3)nc21 (stereo not shown) [Compound 90] | 34 | 67 | 45 | 5 | – | – |
| CC1CCCC1N1C(=O)C2(CC2)c2cnc(NC3CCN(S(=O)(=O)N4CC(N(C)C(=O)CCCCc5cccc6c5n(C)c(=O)n6C5CCC(=O)NC5=O)C4)CC3)nc21 (stereo not shown) [Compound 91] | 25 | 64 | 37 | 6 | – | – |
| CC1CCCC1N1C(=O)C2(CC2)c2cnc(NC3CCN(S(=O)(=O)N4CC5CN(C(=O)CCCCc6cccc7c6n(C)c(=O)n7C6CCC(=O)NC6=O)CC5C4)CC3)nc21 (stereo not shown) [Compound 92] | 7 | 39 | 26 | – | – | – |
| CC1CCCC1N1C(=O)C2(CC2)c2cnc(NC3CCN(S(=O)(=O)N4CCC5(CCCN5C(=O)CCCCc5cccc6c5n(C)c(=O)n6C5CCC(=O)NC5=O)C4)CC3)nc21 (stereo not shown) [Compound 94] | 39 | 63 | 51 | 16 | 2 | – |
| CC1CCCC1N1C(=O)C2(CC2)c2cnc(NC3CCN(S(=O)(=O)N4CC5(CCCCN5C(=O)CCCCc5cccc6c5n(C)c(=O)n6C5CCC(=O)NC5=O)C4)CC3)nc21 (stereo not shown) [Compound 95] | 15 | 65 | 7 | 11 | – | – |
| CC1CCCC1N1C(=O)C2(CC2)c2cnc(NC3CCN(S(=O)(=O)N4CC5(CCCN(C(=O)CCCCc6cccc7c6n(C)c(=O)n7C6CCC(=O)NC6=O)C5)C4)CC3)nc21 (stereo not shown) [Compound 96] | 46 | 46 | 26 | – | – | – |
| CC1CCCC1N1C(=O)C2(CC2)c2cnc(NC3CCN(S(=O)(=O)N4CC5(CN(C(=O)CCCCc6cccc7c6n(C)c(=O)n7C6CCC(=O)NC6=O)C5)C4)CC3)nc21 (stereo not shown) [Compound 97] | 14 | 41 | 46 | – | – | – |
| CC1CCCC1N1C(=O)C2(CC2)c2cnc(NC3CCN(S(=O)(=O)N4CC5CN(C(=O)CCCCc6cccc7c6n(C)c(=O)n7C6CCC(=O)NC6=O)CC54)CC3)nc21 (stereo not shown) [Compound 99] | 1 | 31 | 11 | – | – | – |
| CC1CCCC1N1C(=O)C2(CC2)c2cnc(NC3CCN(S(=O)(=O)N4CCCN(C(=O)CCCCc5cccc6c5n(C)c(=O)n6C5CCC(=O)NC5=O)CC4)CC3)nc21 (stereo not shown) [Compound 100] | 31 | 62 | 34 | 6 | – | – |
| CC1CCCC1N1C(=O)C2(CC2)c2cnc(NC3CCN(S(=O)(=O)C4CCCN(C(=O)CCCCc5cccc6c5n(C)c(=O)n6C5CCC(=O)NC5=O)C4)CC3)nc21 (stereo not shown) [Compound 101] | 47 | 38 | 23 | – | – | – |
| CC1CCCC1N1C(=O)C2(CC2)c2cnc(NC3CCN(S(=O)(=O)N4CC5CN(C(=O)CCCCc6ccc7c(c6)n(C)c(=O)n7C6CCC(=O)NC6=O)CC5C4)CC3)nc21 (stereo not shown) [Compound 103] | 7 | 31 | 0 | – | – | – |
| CC1CCCC1N1C(=O)C2(CC2)c2cnc(NC3CCN(S(=O)(=O)N4CCCC45CCN(C(=O)CCCCc4ccc6c(c4)n(C)c(=O)n6C4CCC(=O)NC4=O)C5)CC3)nc21 (stereo not shown) [Compound 104] | 6 | 25 | 11 | – | – | – |
| CC1CCCC1N1C(=O)C2(CC2)c2cnc(NC3CCN(S(=O)(=O)N4CCC5(CCCN5C(=O)CCCCc5ccc6c(c5)n(C)c(=O)n6C5CCC(=O)NC5=O)C4)CC3)nc21 (stereo not shown) [Compound 105] | 15 | 40 | 36 | – | – | – |
| CC1CCCC1N1C(=O)C2(CC2)c2cnc(NC3CCN(S(=O)(=O)N4CC5(CCCCN5C(=O)CCCCc5ccc6c(c5)n(C)c(=O)n6C5CCC(=O)NC5=O)C4)CC3)nc21 (stereo not shown) [Compound 106] | 3 | 32 | 12 | – | – | – |
| CC1CCCC1N1C(=O)C2(CC2)c2cnc(NC3CCN(S(=O)(=O)N4CC5(CCCN(C(=O)CCCCc6ccc7c(c6)n(C)c(=O)n7C6CCC(=O)NC6=O)C5)C4)CC3)nc21 (stereo not shown) [Compound 107] | 25 | 28 | 22 | – | – | – |
| CC1CCCC1N1C(=O)C2(CC2)c2cnc(NC3CCN(S(=O)(=O)N4CC5(CN(C(=O)CCCCc6ccc7c(c6)n(C)c(=O)n7C6CCC(=O)NC6=O)C5)C4)CC3)nc21 (stereo not shown) [Compound 108] | 16 | 42 | 4 | – | – | – |
| CC1CCCC1N1C(=O)C2(CC2)c2cnc(NC3CCN(S(=O)(=O)N4CC5(CCN(C(=O)CCCCc6ccc7c(c6)n(C)c(=O)n7C6CCC(=O)NC6=O)CC5)C4)CC3)nc21 (stereo not shown) [Compound 109] | 22 | 57 | 47 | 4 | – | – |
| CC1CCCC1N1C(=O)C2(CC2)c2cnc(NC3CCN(S(=O)(=O)N4CC5C4CCN5C(=O)CCCCc4ccc5c(c4)n(C)c(=O)n5C4CCC(=O)NC4=O)CC3)nc21 (stereo not shown) [Compound 110] | 5 | 20 | 14 | – | – | – |
| CC1CCCC1N1C(=O)C2(CC2)c2cnc(NC3CCN(S(=O)(=O)N4CC5CN(C(=O)CCCCc6ccc7c(c6)n(C)c(=O)n7C6CCC(=O)NC6=O)CC54)CC3)nc21 (stereo not shown) [Compound 111] | 9 | 13 | 25 | – | – | – |
| CC1CCCC1N1C(=O)C2(CC2)c2cnc(NC3CCN(S(=O)(=O)N4CCC5(CCN(C(=O)CCCCc6ccc7c(c6)n(C)c(=O)n7C6CCC(=O)NC6=O)C5)C4)CC3)nc21 (stereo not shown) [Compound 112] | 14 | 22 | 28 | – | – | – |
| CC1CCCC1N1C(=O)C2(CC2)c2cnc(NC3CCN(S(=O)(=O)N4CCCN(C(=O)CCCCc5ccc6c(c5)n(C)c(=O)n6C5CCC(=O)NC5=O)CC4)CC3)nc21 (stereo not shown) [Compound 113] | 28 | 21 | 6 | – | – | – |
| Cn1nc(N2CCC(=O)NC2=O)c2ccc(C3CCN(Cc4cccc(S(=O)(=O)N5CCC(Nc6ncc7c(n6)N([C@@H]6CCC[C@@H](O)C6)C(=O)C76CC6)CC5)c4)CC3)cc21 [Compound 118, 1-(6-(1-(3-((4-((7′-((1R,3R)-3-hydroxycyclohexyl)-6′-oxo-6′,7′-dihydrospiro[cyclopropane-1,5′-pyrrolo[2,3-d]pyrimidin]-2′-yl)amino)piperidin-1-yl)sulfonyl)benzyl)piperidin-4-yl)-1-methyl-1H-indazol-3-yl)dihydropyrimidine-2,4(1H,3H)-dione] | 44 | 76 | 14 | 7 | – | – |
| O=C1CCC(N2Cc3cc(N4CCC(CN5CCN(c6cccc(S(=O)(=O)N7CCC(Nc8ncc9c(n8)N([C@@H]8CCC[C@@H](O)C8)C(=O)C98CC8)CC7)c6)CC5)CC4)ccc3C2=O)C(=O)N1 (stereo partly drawn) [Compound 119, 3-{5-[4-({4-[3-(4-{7′-[(1R,3R)-3-hydroxycyclohexyl]-6′-oxospiro[cyclopropane-1,5′-pyrrolo [2,3-d]pyrimidin]-2′-ylamino}piperidin-1-ylsulfonyl)phenyl]piperazin-1-yl}methyl)piperidin-1-yl]-1-oxo-3H-isoindol-2-yl}piperidine-2,6-dione] | 22 | 70 | – | 3 | – | 25 |
| O=C1CCC(N2Cc3cc(N4CC5(CN(Cc6cccc(S(=O)(=O)N7CCC(Nc8ncc9c(n8)N([C@@H]8CCC[C@@H](O)C8)C(=O)C98CC8)CC7)c6)C5)C4)ccc3C2=O)C(=O)N1 (stereo partly shown) [Compound 120] | 23 | 62 | 25 | 23 | – | – |
